Measured values published in publication PMC6927504, “Screening of House Dust from Chinese Homes for Chemicals with Liver X Receptors Binding Activities and Characterization of Atherosclerotic Activity Using an in Vitro Macrophage Cell Line and ApoE^−/− Mice” (Environmental Health Perspectives, 2019).

How the values were obtained:
[1] = Body weight of ApoE−/− mice; format: in vivo, mouse; conditions: 10 and 40 mg/kg BW, 13 weeks
Source text: All experiments related to animals were approved by the institutional animal care and use committee of Peking University and followed the guidelines for animal experiments of the university as well as for experimental animals in China. The biological effect size of the animal experiments was based on the previous paper ([Negro Silva et al. 2017]). C57BL/6 (12 weeks old) and ApoE^−/− mice (12 weeks old) were obtained from the Beijing Vital River Laboratory Animal Technology Company. Mice used in the experiments were acclimated to the housing unit 2 weeks before they were used for experiments, and they were randomly assigned to control or TPHP treatment groups. Five animals were housed to a cage, and mice were acclimatized to the controlled environment (temperature: 22±2°C; relative humidity: 40–60%; artificial lighting: 12 h:12 h light/dark). Mice received diet and drinking water ad libitum. Body weight (BW) was measured every week during the dosing period. Forty-five C57BL/6 mice and 27 ApoE^−/− mice were used in this study. […] Considering that this study assessed the effects of short-term exposure to TPHP, whereas humans are exposed to TPHP over a lifelong period, the present study used exposure doses that were higher than that of human exposure from house dust. […]

[2] = Plasma lipids in ApoE−/− mice; format: in vivo, mouse; conditions: 13 weeks, mean±SE
Source text: All experiments related to animals were approved by the institutional animal care and use committee of Peking University and followed the guidelines for animal experiments of the university as well as for experimental animals in China. The biological effect size of the animal experiments was based on the previous paper ([Negro Silva et al. 2017]). C57BL/6 (12 weeks old) and ApoE^−/− mice (12 weeks old) were obtained from the Beijing Vital River Laboratory Animal Technology Company. Mice used in the experiments were acclimated to the housing unit 2 weeks before they were used for experiments, and they were randomly assigned to control or TPHP treatment groups. Five animals were housed to a cage, and mice were acclimatized to the controlled environment (temperature: 22±2°C; relative humidity: 40–60%; artificial lighting: 12 h:12 h light/dark). Mice received diet and drinking water ad libitum. Body weight (BW) was measured every week during the dosing period. Forty-five C57BL/6 mice and 27 ApoE^−/− mice were used in this study. Animal protocol 1: Male C57BL/6 mice (five mice per group) were fed a basic diet (Laboratory Animal Center of the Academy of Military Medical Sciences, China). On Day 0, mice were stimulated with paraffin oil by intraperitoneal injection. From Day 1 to Day 7, mice were exposed to corn oil (control) or TPHP (dissolved in corn oil) at 40 or 200mg/kg BW by daily oral gavage. The volume of the corn oil or TPHP in corn oil administered was 5mL/kg BW. On Day 8, after the mice were anesthetized by sodium pentobarbital via intramuscular injection, peritoneal macrophages were harvested from peritoneal lavage with 4mL pre-warmed DMEM-F12 (containing 10% FBS) using a 25-gauge needle; 5–10 min later, 3–3.5mL peritoneal fluid was collected, and the cells were isolated by centrifuge at 1,000 rpm for 5 min. The isolated cells were cultured in DMEM-F12 containing 10% FBS. After 4 h, the medium was changed, and the cells were cultured overnight. The cells were then used for the qRT-PCR, cellular cholesterol efflux assay, and foam cell formation experiment. The exposure period used in the present study was based on previous studies, in which peritoneal macrophages were harvested from mice treated with chemicals for 4–14 d ([Li et al. 2009]; [Saeed et al. 2012]). Considering that this study assessed the effects of short-term exposure to TPHP, whereas humans are exposed to TPHP over a lifelong period, the present study used exposure doses that were higher than that of human exposure from house dust. Animal protocol 2: Because wild-type mice are highly resistant to atherosclerosis, a well-established atherosclerosis model, the ApoE^−/− mouse, was used in the study. The male ApoE^−/− mice (nine mice per group) were fed a high-fat diet (D12108C; Research Diets Inc.) and exposed to corn oil (control) or TPHP (dissolved in corn oil) at 10 or 40mg/kg BW for 13 weeks by oral gavage. Mice were sacrificed 24 h after the last day of exposure with an overdose of sodium pentobarbital via intraperitoneal injection. Because the formation of atherosclerosis lesions required a long time, the exposure period used in the present study was based on previous studies in which the effects of chemicals on formation of atherosclerosis lesions were observed after an exposure period of 12–15 weeks ([Li et al. 2009]; [Negro Silva et al. 2017]; [Shi et al. 2016]). The doses of TPHP used in the ApoE^−/− model mouse referred to previous studies in which mice were treated with TPHP at 50–300mg/kg BW to observe significant adverse effects, including decreased testosterone levels and hypertriglyceridemia ([Chen et al. 2015]; [Morris et al. 2014]).
Treated ApoE^−/− mice ( n=9 per group) were fasted overnight, and heart puncture was used to collect the blood soon after each animal was sacrificed. The blood samples were then centrifuged ( 1,000×g , 10 min, 4°C) to separate the plasma, and the plasma was stored at −80°C . […]

ABCA1 = assay: qRT-PCR of LXR target gene ABCA1 in RAW264.7 macrophages; format: cell-based; conditions: vehicle-treated cells set to 1, p<0.01
Procedure: RAW264.7 cells were obtained from the National Infrastructure of Cell Line Resource of Beijing, China, and the cells used for the experiment were cultured for at least three passages. Dulbecco’s Modified Eagle’s Medium (DMEM)-F12 medium containing 10% fetal bovine serum (FBS) was employed to culture the RAW264.7 cells. RAW264.7 cells were incubated at 37°C with 5% carbon dioxide. The RAW264.7 cells were plated at 2.5×10^5 cells/well (6-well plates), 6.0×10^4 cells/well (24-well plates), and 10^4 cells/well (96-well plates). The RAW264.7 cells were plated and grown overnight; then the medium was removed and fresh DMEM-F12 contained with 0.1% DMSO (control; n=3 ) or TPHP at the concentrations of 1–20,000 nM ( n=3 per group) was added. […] Then the cells were used for the quantitative reverse transcription (qRT)-PCR, cellular cholesterol efflux assay, and foam cell formation experiment.
Total RNA was isolated from RAW264.7 cells and mouse peritoneal macrophages using TRIzol reagent according to the manufacturer’s instructions. Then a Nanovue Plus™ spectrophotometer (GE Healthcare Life Science) was used to analyze the concentration, quality, and purity of the RNA. Total RNA ( 1μg ) was mixed with oligo deoxythymine (dT) ( 1μL ) at 70°C for 5 min and then combined with a mixture containing Moloney murine leukemia virus (MMLV) reverse transcriptase ( 1μL ), deoxy-ribonucleoside triphosphate (dNTP) ( 1.25μL ), Recombinant RNasin® Ribonuclease Inhibitor (Promega) ( 0.65μL ), and MMLV buffer ( 5μL ) at 42°C for 60 min. The SYBR® Green PCR Kit (TOYOBO) was used for RT-PCR analysis. Real-time fluorescence detection was performed using the StepOnePlus™ sequence detection system (Applied Biosystems). […] The following primers were designed and purchased from Sangon Biotech:
• actin: 5′-[…]-3′ and 5′-[…]-3′ ATP-binding cassette transporter A1 (ABCA1): 5′-[…]-3′ and 5′-[…]-3′ • ATP-binding cassette transporter G1 (ABCG1): 5′-[…]-3′ and 5′-[…]-3′.

[3] = 40mg/kg, n=9, p<0.05 vs control

## O=P(Oc1ccccc1)(Oc1ccccc1)Oc1ccccc1 [TPHP, triphenyl phosphate]
[1]
  Body weight versus control: No significant differences
[2]; 10mg/kg, n=9
  Plasma HDL-C: 1.13 ± 0.05 mmol/L
  Plasma LDL-C: 10.53 ± 0.32 mmol/L
  Plasma cholesterol: 26.15 ± 1.34 mmol/L
  Plasma triglycerides: 0.92 ± 0.06 mmol/L
[2]; 40mg/kg, n=9
  Plasma HDL-C: 1.29 ± 0.05 mmol/L
  Plasma LDL-C: 10.27 ± 0.22 mmol/L
[2]; [3]
  Plasma cholesterol: 28.83 ± 1.90 mmol/L
  Plasma triglycerides: 1.06 ± 0.12 mmol/L
ABCA1; 5,000 nM
  ABCA1 gene expression relative to control: 0.49±0.06 fold
ABCA1; 10,000 nM
  ABCA1 gene expression relative to control: 0.38±0.01 fold
ABCA1; 20,000 nM
  ABCA1 gene expression relative to control: 0.30±0.03 fold
